Reference: the supplement of paper PMC4862054

Tests used:
Settings in all cases: incubation time: 72 h
DU-4475 [1] = assay: normalised response (% of control), CellTiter-Glo; higher = more viable cells (100 = DMSO, 0 = benzethonium chloride kill control)
Summary of the method: (§1)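 In 384-well plates holding compound at 5 concentrations in 10-fold steps over a 10,000-fold range specific to each compound, breast cancer cell lines were seeded as 20 µl suspension and incubated 72 h. CellTox Green fluorescence was measured at 485/520 nm, after which CellTiter-Glo luminescence was measured following 10 min at room temperature. Plate signals were normalised to 0.1 % DMSO (100) and a positive kill control (0), and each value is the normalised signal at a single concentration.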

SK-BR-3 [2] = assay: as above
Summary of the method: as §1

CAL-85-1 [3] = assay: as above
Summary of the method: as §1

MDA-MB-468 [4] = assay: as above
Summary of the method: as §1

HDQ-P1 [5] = assay: as above
Summary of the method: as §1

Hs578T [6] = assay: as above
Summary of the method: as §1

CAL-120 [7] = assay: as above
Summary of the method: as §1

CAL-148 [8] = assay: as above
Summary of the method: as §1

HCC1937 [9] = assay: as above
Summary of the method: as §1

MFM-223 [10] = assay: as above
Summary of the method: as §1

HCC1143 [11] = assay: as above
Summary of the method: as §1

BT-549 [12] = assay: as above
Summary of the method: as §1

MDA-MB-436 [13] = assay: as above
Summary of the method: as §1

CAL-51 [14] = assay: as above
Summary of the method: as §1

BT-474 [15] = assay: as above
Summary of the method: as §1

MDA-MB-231 [16] = assay: as above
Summary of the method: as §1

HCC1599 [17] = assay: as above
Summary of the method: as §1

MCF-10A = assay: as above
Summary of the method: as §1

MDA-MB-453 [18] = assay: as above
Summary of the method: as §1

DU-4475 [19] = assay: normalised viability (% of control), CellTiter-Blue; higher = more viable cells (100 = DMSO, 0 = benzethonium chloride kill control)
Summary of the method: (§2)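 Each value is normalised viability at a single listed concentration of the series. Breast cancer cell lines in 384-well plates were incubated 72 h with compound and read by CellTiter-Blue fluorescence at 560/590 nm, with vehicle set to 100 and a positive kill control to 0 on every plate.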

SK-BR-3 [20] = assay: as above
Summary of the method: as §2

CAL-85-1 [21] = assay: as above
Summary of the method: as §2

MDA-MB-468 [22] = assay: as above
Summary of the method: as §2

HDQ-P1 [23] = assay: as above
Summary of the method: as §2

Hs578T [24] = assay: as above
Summary of the method: as §2

CAL-120 [25] = assay: as above
Summary of the method: as §2

CAL-148 [26] = assay: as above
Summary of the method: as §2

HCC1937 [27] = assay: as above
Summary of the method: as §2

MFM-223 [28] = assay: as above
Summary of the method: as §2

HCC1143 [29] = assay: as above
Summary of the method: as §2

BT-549 [30] = assay: as above
Summary of the method: as §2

MDA-MB-436 [31] = assay: as above
Summary of the method: as §2

CAL-51 [32] = assay: as above
Summary of the method: as §2

BT-474 [33] = assay: as above
Summary of the method: as §2

MDA-MB-231 [34] = assay: as above
Summary of the method: as §2

HCC1599 [35] = assay: as above
Summary of the method: as §2

MDA-MB-453 [36] = assay: as above
Summary of the method: as §2

Row | SMILES | normalised response (DU-4475 [1]) [%] | normalised response (SK-BR-3 [2]) [%] | normalised response (CAL-85-1 [3]) [%] | normalised response (MDA-MB-468 [4]) [%] | normalised response (HDQ-P1 [5]) [%] | normalised response (Hs578T [6]) [%] | normalised response (CAL-120 [7]) [%] | normalised response (CAL-148 [8]) [%] | normalised response (HCC1937 [9]) [%] | normalised response (MFM-223 [10]) [%] | normalised response (HCC1143 [11]) [%] | normalised response (BT-549 [12]) [%] | normalised response (MDA-MB-436 [13]) [%] | normalised response (CAL-51 [14]) [%] | normalised response (BT-474 [15]) [%] | normalised response (MDA-MB-231 [16]) [%] | normalised response (HCC1599 [17]) [%] | normalised response (MCF-10A) [%] | normalised response (MDA-MB-453 [18]) [%] | normalised viability (DU-4475 [19]) [%] | normalised viability (SK-BR-3 [20]) [%] | normalised viability (CAL-85-1 [21]) [%] | normalised viability (MDA-MB-468 [22]) [%] | normalised viability (HDQ-P1 [23]) [%] | normalised viability (Hs578T [24]) [%] | normalised viability (CAL-120 [25]) [%] | normalised viability (CAL-148 [26]) [%] | normalised viability (HCC1937 [27]) [%] | normalised viability (MFM-223 [28]) [%] | normalised viability (HCC1143 [29]) [%] | normalised viability (BT-549 [30]) [%] | normalised viability (MDA-MB-436 [31]) [%] | normalised viability (CAL-51 [32]) [%] | normalised viability (BT-474 [33]) [%] | normalised viability (MDA-MB-231 [34]) [%] | normalised viability (HCC1599 [35]) [%] | normalised viability (MDA-MB-453 [36]) [%]
1 | Cn1cnc2c(F)c(Nc3ccc(Br)cc3F)c(C(=O)NOCCO)cc21 [MEK-162] (0.1 nM) | 98.6 | 103 | 100 | 108 | 99.2 | 94.3 | 103 | 96.2 | 94.4 | 101 | 94.3 | 98.5 | 97.9 | 93.5 | 104 | 101 | 114 | 105 | 115 | 106 | 102 | 91.2 | 104 | 102 | 125 | 83.7 | 111 | 105 | 92.1 | 112 | 105 | 104 | 109 | 122 | 116 | 108 | 100
2 | CCS(=O)(=O)c1cccc(-c2cc(C(=O)NC3CCN(C)CC3)c(C)c3[nH]c4ncc(C)cc4c23)c1 [TAK-901] (0.1 nM) | 106 | 113 | 103 | 100 | 98.9 | 111 | 97.4 | 101 | 91.8 | 106 | 108 | 106 | 93.8 | 122 | 101 | 101 | 108 | 109 | 117 | 85.1 | 92 | 83.7 | 95.9 | 111 | 109 | 87.2 | 102 | 105 | 96.7 | 94.9 | 112 | 108 | 90.9 | 76.6 | 104 | 87 | 96.1
3 | CCOc1cc2ncc(C#N)c(Nc3ccc(OCc4ccccn4)c(Cl)c3)c2cc1NC(=O)/C=C/CN(C)C [Neratinib] (0.1 nM) | 98.5 | 101 | 97.2 | 105 | 102 | 106 | 98.4 | 105 | 97.8 | 108 | 100 | 103 | 94.8 | 89 | 105 | 98.3 | 96.6 | 104 | 117 | 107 | 99.8 | 83 | 100 | 86.8 | 99.7 | 86 | 96.7 | 82.6 | 99.2 | 103 | 105 | 123 | 91.5 | 97.3 | 99.6 | 104 | 105
4 | CC(C)(C)c1cc(NC(=O)Nc2ccc(-c3cn4c(n3)sc3cc(OCCN5CCOCC5)ccc34)cc2)no1 [Quizartinib] (0.1 nM) | 104 | 109 | 110 | 107 | 99.5 | 99.8 | 103 | 110 | 103 | 108 | 100 | 96.2 | 101 | 87.7 | 108 | 106 | 112 | 101 | 105 | 117 | 90.9 | 89.4 | 92.3 | 74.7 | 120 | 99.7 | 105 | 109 | 81.8 | 99.6 | 92.8 | 98.1 | 103 | 115 | 105 | 89.4 | 113
